pIC50: −log10 of the molar value.
Assays:
[1] = target: Brm ATPase-SnAC (636-1331) (Homo sapiens, UniProt P51531); test: BRM ATPase Inhibition Assay (ADP-Glo); format: biochemical; conditions: 5 nM BRM ATPase-SnAC, 85 μM ATP, 2 nM pCMV-dR8.91 plasmid, 60 min RT
Method: BRM ATPase Inhibition Assay
(§1) Compound inhibition of ATPase activity of Brm ATPase-SnAC (636-1331) was measured by using the ADP-Glo assay kit from Promega (V6930). 120 nL of compound in 100% DMSO were transferred to a white 384 well microtiter assay plate using an ATS Acoustic Transfer System from EDC Biosystems. All subsequent reagent additions were performed using a MultiFlo FX Multi-Mode Dispenser. Assay buffer was 20 mM HEPES pH 7.5, 1 mM MgCl2, 20 mM KCl, 1 mM DTT, 0.01% BSA, 0.005% Tween 20. 4 μL of 7.5 nM Brm ATPase-SnAC in assay buffer was added to the assay plate and incubated at RT for 5 min with compound. 2 μL of 255 μM ATP and 6 nM pCMV-dR8.91 plasmid in assay buffer was added to assay plate to initiate the reaction. The final concentrations of reagents were 5 nM BRM ATPase-SnAC, 85 μM ATP, and 2 nM pCMV-dR8.91 plasmid. The ATPase reaction was incubated at RT for 60 min. 3 μL of ADP-Glo reagent was added to stop the reaction and was incubated for 30 min at RT. 3 μL of Kinase detection reagent was added to the assay plate which was incubated for 90 min at RT. Plates were read with a 2103 Multilabel Envision reader using ultrasensitive luminescence detection. IC50 values were determined from the average of duplicate data points by non-linear regression analysis of percent inhibition values plotted versus compound concentration.
(§2) pCMV-dR8.91 Plasmid Used for BRM/BRG1 ATPase Inhibition Assays:
(§3) The plasmid template pCMV-dR8.91 (see sequence below) is propagated using One Shot Stbl3 Chemically Competent E. coli (Catalog Number C73C7303, Invitrogen/Thermo Fisher Scientific) following the transformation protocol provided with the reagent. Transformed bacterial colonies are then selected on LB agar plates containing ampicillin/carbenicllin antibiotic selection medium (Catalog Number L1010, Teknova). Bacterial colonies are grown in LB liquid broth (Catalog number 10855001, Invitrogen) containing ampicillin at 100 micrograms/mL and plasmid DNA isolated according to required scale according to the manufacturers protocol provided with the Qiagen Plasmid Isolation Kits (Maxi prep, Product Id Number 10063).

[2] = target: Brg1 ATPase-SnAC (658-1361) (Homo sapiens (Human), UniProt P51532); test: BRG1 ATPase Inhibition Assay (ADP-Glo); format: biochemical; conditions: 5 nM Brg1 ATPase-SnAC, 65 μM ATP, 2 nM pCMV-dR8.91 plasmid, 60 min RT
Chain of Brg1 ATPase-SnAC (658-1361) (P51532 other isoform, or with tags, fused parts or gaps): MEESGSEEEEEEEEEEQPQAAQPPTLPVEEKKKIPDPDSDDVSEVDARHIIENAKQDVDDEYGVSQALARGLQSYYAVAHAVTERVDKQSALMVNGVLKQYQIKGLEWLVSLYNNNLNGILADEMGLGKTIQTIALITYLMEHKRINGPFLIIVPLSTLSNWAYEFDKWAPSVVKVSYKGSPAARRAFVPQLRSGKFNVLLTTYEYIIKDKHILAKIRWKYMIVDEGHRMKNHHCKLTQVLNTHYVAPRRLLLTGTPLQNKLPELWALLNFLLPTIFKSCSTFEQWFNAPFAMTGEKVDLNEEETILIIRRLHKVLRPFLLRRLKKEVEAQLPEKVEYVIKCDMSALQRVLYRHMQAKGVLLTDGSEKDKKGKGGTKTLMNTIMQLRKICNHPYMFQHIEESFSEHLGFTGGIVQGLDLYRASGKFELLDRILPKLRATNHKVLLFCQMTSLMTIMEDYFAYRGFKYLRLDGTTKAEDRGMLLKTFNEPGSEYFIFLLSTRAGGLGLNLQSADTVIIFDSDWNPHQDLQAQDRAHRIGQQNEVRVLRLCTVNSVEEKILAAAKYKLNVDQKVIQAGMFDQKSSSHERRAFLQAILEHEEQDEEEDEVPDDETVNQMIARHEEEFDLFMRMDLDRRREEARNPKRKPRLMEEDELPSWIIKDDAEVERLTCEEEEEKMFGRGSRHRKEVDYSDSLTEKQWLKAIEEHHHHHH
Method: BRG1 ATPase Inhibition Assay
BRG1 ATPase Inhibition Activity
as §1, with “Brg1” for “Brm”, “(658-1361)” for “(636-1331)”, “195” for “255”, “Brg1” for “BRM”, “65” for “85”
as §2, §3

Chain of Brm ATPase-SnAC (636-1331) (P51531 whole entry, looked up): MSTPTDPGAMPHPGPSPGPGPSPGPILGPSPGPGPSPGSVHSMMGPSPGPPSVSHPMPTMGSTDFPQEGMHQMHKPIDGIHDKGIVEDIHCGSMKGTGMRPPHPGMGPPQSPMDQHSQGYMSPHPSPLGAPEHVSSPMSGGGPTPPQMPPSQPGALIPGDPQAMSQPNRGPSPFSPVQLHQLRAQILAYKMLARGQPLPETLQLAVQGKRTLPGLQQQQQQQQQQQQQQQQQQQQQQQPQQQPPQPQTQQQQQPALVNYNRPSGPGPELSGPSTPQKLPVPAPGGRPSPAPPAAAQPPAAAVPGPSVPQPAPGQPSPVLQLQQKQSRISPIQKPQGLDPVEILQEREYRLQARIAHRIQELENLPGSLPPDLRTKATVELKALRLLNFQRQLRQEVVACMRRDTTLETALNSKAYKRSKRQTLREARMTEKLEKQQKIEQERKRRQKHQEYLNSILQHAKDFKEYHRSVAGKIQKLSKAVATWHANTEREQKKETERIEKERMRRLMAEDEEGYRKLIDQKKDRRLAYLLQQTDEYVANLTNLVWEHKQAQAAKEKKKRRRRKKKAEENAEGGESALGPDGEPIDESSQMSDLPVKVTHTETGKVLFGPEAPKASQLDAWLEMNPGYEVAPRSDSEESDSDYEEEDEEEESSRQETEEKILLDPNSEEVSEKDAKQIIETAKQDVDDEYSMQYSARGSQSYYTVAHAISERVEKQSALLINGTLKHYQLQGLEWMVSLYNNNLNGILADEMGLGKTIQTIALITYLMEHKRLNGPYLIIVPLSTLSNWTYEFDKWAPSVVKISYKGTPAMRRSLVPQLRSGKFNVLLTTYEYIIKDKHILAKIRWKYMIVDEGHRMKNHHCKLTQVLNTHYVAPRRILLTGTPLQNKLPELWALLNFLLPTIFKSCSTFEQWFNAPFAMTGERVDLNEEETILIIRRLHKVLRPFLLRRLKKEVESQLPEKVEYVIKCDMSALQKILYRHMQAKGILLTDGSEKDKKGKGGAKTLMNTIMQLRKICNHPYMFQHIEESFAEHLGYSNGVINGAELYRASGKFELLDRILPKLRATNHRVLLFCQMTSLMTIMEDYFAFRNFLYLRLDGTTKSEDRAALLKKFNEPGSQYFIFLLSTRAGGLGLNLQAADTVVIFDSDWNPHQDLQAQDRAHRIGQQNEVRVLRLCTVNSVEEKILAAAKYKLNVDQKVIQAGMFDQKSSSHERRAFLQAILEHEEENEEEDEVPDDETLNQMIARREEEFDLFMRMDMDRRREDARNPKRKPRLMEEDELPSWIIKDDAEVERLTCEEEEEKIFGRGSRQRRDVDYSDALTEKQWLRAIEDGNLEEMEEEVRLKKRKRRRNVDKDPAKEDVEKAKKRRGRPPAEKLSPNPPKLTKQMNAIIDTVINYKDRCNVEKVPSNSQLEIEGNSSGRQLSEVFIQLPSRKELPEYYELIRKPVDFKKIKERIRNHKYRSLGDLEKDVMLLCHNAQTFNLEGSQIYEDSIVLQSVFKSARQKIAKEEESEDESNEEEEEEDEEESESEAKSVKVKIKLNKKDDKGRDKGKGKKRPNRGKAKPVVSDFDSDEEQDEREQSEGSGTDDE

pIC50 [1]	pIC50 [2]	SMILES
> 8.30	> 8.30	O=C(Nc1cc(C(F)F)ns1)Nc1cc(Cl)ncc1CO [Example 5, 1-(2-chloro-5-(hydroxymethyl)pyridin-4-yl)-3-(3-(difluoromethyl)isothiazol-5-yl)urea]
> 8.30	> 8.30	Nc1cnc(F)cc1NC(=O)Nc1cc(C(F)F)ns1 [Example 6, 1-(5-amino-2-fluoropyridin-4-yl)-3-(3-(difluoromethyl)isothiazol-5-yl)urea]
> 8.30	> 8.30	O=C(Nc1cc(C(F)F)ns1)Nc1cc(F)ncc1CO [Example 7, 1-(3-(difluoromethyl)isothiazol-5-yl)-3-(2-fluoro-5-(hydroxymethyl)pyridin-4-yl)urea]
7.05	7.72	O=C(Nc1cc(C(F)F)ns1)Nc1ccnc(F)c1CO [Example 8, 1-(3-(difluoromethyl)isothiazol-5-yl)-3-(2-fluoro-3-(hydroxymethyl)pyridin-4-yl)urea]

SMILES	pIC50 [1]	pIC50 [2]
O=C(Nc1ccnc(Cl)c1)Nc1cc(C(F)F)ns1 [Example 1, 1-(2-chloropyridin-4-yl)-3-(3-(difluoromethyl)isothiazol-5-yl)urea]	8.30	8.22
Cc1cc(NC(=O)Nc2ccnc(Cl)c2)sn1 [Example 2, 1-(2-chloropyridin-4-yl)-3-(3-methylisothiazol-5-yl)urea]	7.48	7.52
Nc1cnc(Cl)cc1NC(=O)Nc1cc(C(F)F)ns1 [Example 4, 1-(5-amino-2-chloropyridin-4-yl)-3-(3-(difluoromethyl)isothiazol-5-yl)urea]	> 8.30	> 8.30
